Among the data in PubChem BioAssay (NCI) are GI50 and TGI values, retold here.

The structures appear in SMILES notation.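 In this assay, cells in 96-well plates receive the compound at five concentrations for 48 hours. Endpoints are linearly interpolated between the surrounding concentrations. Abbreviation: GI50, concentration required for 50% inhibition of growth. The concentration for full growth arrest is given as TGI.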

Common to all, as to test: growth of human tumour cells (NCI), 48 h
The subject of experiment [1] is M14 melanoma.
Experiment [2] deals with SK-MEL-28 melanoma.
Experiment [3] deals with A549 NSCLC.
Experiment [4] concerns T-47D breast.
The subject of experiment [5] is RPMI-8226 leukemia.
Experiment [6] concerns MOLT-4 leukemia.
In experiment [7] the test system is U251 CNS.
Experiment [8] concerns KM12 colon.
For experiment [9], the system named is UACC-257 melanoma.
Experiment [10] deals with SF-539 CNS.

In the case of `C#C[C@]1(O)CC[C@H]2[C@@H]3CC=C4c5nc(N)sc5CC[C@]4(C)[C@H]3CC[C@@]21C`, the GI50 in [1] is 2.75 µM; in experiment [2], 1.9 µM; in experiment [3], 4.15 µM; in [4], 3.98 µM; in experiment [5], 1.57 µM; in experiment [6], 2.18 µM. Besides, the GI50 in experiment [7] was 2.47 µM; in experiment [8], 3.49 µM; in experiment [9], 2.36 µM; in experiment [10], 1.58 µM. Also, the TGI in experiment [1] was 7.83 µM; in [2], 4.67 µM; in [3], 24.8 µM; in [4] it was 29.7 µM; in experiment [5] it was 4.73 µM; in [6], 6.24 µM. Also, the TGI turned out to be 16.4 µM in experiment [7], 16.1 µM in [8], 6.86 µM in [9] and 3.56 µM in experiment [10].
On to `CC1(C)N=C(N)N=C(N)N1c1cccc(CCc2ccccc2)c1`, for which the GI50 in experiment [1] is 1.29 µM; in experiment [2] it was 1.04 µM; in [3], 0.125 µM; in experiment [4], 2.95 µM; in experiment [5], 1.63 µM; in experiment [6] it was 0.599 µM. In addition, the GI50 in experiment [7] was 0.113 µM; in experiment [8] it was 0.456 µM; in [9], 0.533 µM; in [10], 1.37 µM. The TGI is above 100 µM in experiment [1]; above 68.9 µM in experiment [2]; above 100 µM in experiment [3]; above 100 µM in [4]; above 58.6 µM in [5]; above 89.2 µM in experiment [6]. Moreover, the TGI is above 100 µM in experiment [7], 14.6 µM in experiment [8], 32.5 µM in experiment [9] and above 100 µM in [10].
In the case of `CC1(C)C2CCC13C(=O)C1OC3(C2)C2C(=O)c3c(ccc4c3ccc3ccccc34)C(=O)C12` (configuration not stated), the GI50 in experiment [1] is above 100 µM; in [2], above 84.3 µM; in [3], above 60.1 µM; in [4], 48 µM; in experiment [5], 19.2 µM; in [6], 1.1 µM. Also, the GI50 in experiment [7] is above 64.8 µM; in experiment [8] it was 57.6 µM; in experiment [9], above 29.2 µM; in experiment [10] it was above 64.4 µM. In addition, the TGI in experiment [1] is above 100 µM; in experiment [2] it was above 100 µM; in experiment [3], above 100 µM; in experiment [4] it was above 100 µM; in experiment [5], above 60 µM; in experiment [6], 10.6 µM. Also, the TGI was above 100 µM in [7], above 100 µM in [8], above 70.5 µM in experiment [9] and above 100 µM in [10].
With `Nc1ncc2ncn(C3CCC(CO)O3)c2n1` (configuration not stated), the TGI in experiment [1], in [2], in [3], in [4], in experiment [5] and in [6] was above 100 µM in each case. For the same compound, the TGI in [7], in [8], in experiment [9] and in [10] was above 100 µM throughout.
Turning to `Nn1c(-c2ccc(Cl)cc2)nc2c(-c3ccc(Cl)cc3)nc3ccc(Cl)cc3c2c1=O`, the GI50 in experiment [1] was 15.1 µM; in [2], 49.6 µM; in [3], 4.8 µM; in experiment [4] it was 9.3 µM; in experiment [5], 4.14 µM; in experiment [6], 4.67 µM. For the same compound, the GI50 in [7] is 3.07 µM; in experiment [8], above 100 µM; in experiment [9], 25.2 µM; in experiment [10] it was 10.4 µM. Besides, the TGI in experiment [1] was above 100 µM; in [2], above 100 µM; in experiment [3], above 100 µM; in [4] it was 67.2 µM; in experiment [5] it was 26.3 µM; in [6], above 100 µM. Also, the TGI in experiment [7] was 12.7 µM; in experiment [8], above 100 µM; in experiment [9], above 100 µM; in [10], 36.8 µM.
Turning to `CN1CC[C@H](c2c(O)cc(O)c3c(=O)cc(-c4ccccc4Cl)oc23)[C@H](O)C1`, the GI50 was 0.0696 µM in experiment [1]; 0.0946 µM in experiment [3]; 0.0737 µM in experiment [4]; 0.076 µM in [5]; 0.076 µM in [6]; 0.128 µM in experiment [9]. Moreover, in experiment [10], the GI50 is 0.139 µM. The TGI was 0.293 µM in experiment [1]; 1.3 µM in [2]; above 10 µM in experiment [3]; above 2.84 µM in experiment [4]; above 2.32 µM in experiment [5]; above 10 µM in [6]. Also, the TGI in [7] was above 10 µM; in experiment [8] it was above 10 µM; in experiment [9], 0.91 µM; in [10] it was 0.542 µM.
As for `CCOc1ccc2cc(-c3nn(CC4CCNCC4)c4ncnc(N)c34)ccc2c1`, the GI50 in [1] was 14.1 µM; in experiment [2], 16.1 µM; in experiment [3], 20.3 µM; in [4] it was 18.2 µM; in experiment [5], 14 µM; in experiment [6], 4.73 µM. The GI50 in [7] was 13.7 µM; in [8] it was 1.64 µM; in experiment [9] it was 16.8 µM; in experiment [10], 13.9 µM. The TGI was 29.3 µM in [1]; 30.2 µM in experiment [2]; 46.2 µM in experiment [3]; 50.5 µM in experiment [4]; 34.6 µM in experiment [5]; 19.8 µM in [6]. Besides, the TGI in [7] turned out to be 29.5 µM; in experiment [8], 13.7 µM; in experiment [9] it was 31.1 µM; in [10], 26.9 µM.
With `CCOC(=O)[C@@H]1CSC(CC)=C(C(=O)O)N1`, the GI50 in experiment [1], in [2], in experiment [3], in [4], in experiment [5] and in [6] was above 100 µM each time. Besides, the GI50 in [7], in [8], in experiment [9] and in experiment [10] was above 100 µM in each case. The TGI in experiment [1], in experiment [2], in experiment [3], in experiment [4], in experiment [5] and in experiment [6] was above 100 µM in each case. For the same compound, the TGI in experiment [7], in experiment [8], in experiment [9] and in experiment [10] was above 100 µM each time.
